From patent publication US8076487B2, “Pyridone derivative and herbicide” (Kumiai Chemical Industry Co., Ltd., priority 2006, dated 2011)

How the values were obtained:
Experiment in all cases: Test Example 1: herbicidal effect by soil application to paddy field
Type in all cases: in vivo
Conditions in all cases: paddy field soil application; active ingredient 1,000 g per 1 hectare; wettable powder added dropwise to water surface the day after sowing; examined on the 21st day after application
[1] = test system: Japanese bulrush (Scirpus juncoides Roxb.)
Excerpt: (§1) Test Example 1 Test on Herbicidal Effect by Soil Application to Paddy Field In a 100 cm2 plastic pot, paddy field soil was filled. After puddling and leveling, seeds of early watergrass (Echinochloa oryzicola […] (Monochoria vaginalis ([…] Japanese bulrush (Scirpus juncoides Roxb.) were sown, and water was filled to be flooded to a water depth of 3 cm. […] Then, on the 21st day after the application to the plants grew in a greenhouse, the herbicidal effect was examined in accordance with a standard shown in Table 34. [table]

[2] = test system: early watergrass (Echinochloa oryzicola Vasing)
Excerpt: as §1

[3] = test system: heartshape false pickerelweed (Monochoria vaginalis (Burm.f.) C.Presl)
Excerpt: as §1

## Cn1c(C(F)(F)F)ccc(C(=O)C2=C(Sc3ccc(Cl)cc3)CCCC2=O)c1=O [II-13]
[1]
  herbicidal effect, Scirpus juncoides Roxb.: 5 (90% or more of herbicidal effect and crop phytotoxicity)
[2]
  herbicidal effect, Echinochloa oryzicola Vasing: 5 (90% or more of herbicidal effect and crop phytotoxicity)
[3]
  herbicidal effect, Monochoria vaginalis (Burm. f.) C. Presl: 5 (90% or more of herbicidal effect and crop phytotoxicity)

## CCCCN(CCCC)n1c(C(F)(F)F)ccc(C(=O)C2=C(O)CCCC2=O)c1=O [I-174]
[1]
  herbicidal effect, Scirpus juncoides Roxb.: 5 (90% or more of herbicidal effect and crop phytotoxicity)
[2]
  herbicidal effect, Echinochloa oryzicola Vasing: 5 (90% or more of herbicidal effect and crop phytotoxicity)
[3]
  herbicidal effect, Monochoria vaginalis (Burm. f.) C. Presl: 5 (90% or more of herbicidal effect and crop phytotoxicity)

## CCCS(=O)(=O)Oc1c(C(=O)c2ccc(C(F)(F)F)n(CCCSC)c2=O)cnn1C [IV-57]
[1]
  herbicidal effect, Scirpus juncoides Roxb.: 2 (30 to less than 50% of herbicidal effect and crop phytotoxicity)
[2]
  herbicidal effect, Echinochloa oryzicola Vasing: 5 (90% or more of herbicidal effect and crop phytotoxicity)
[3]
  herbicidal effect, Monochoria vaginalis (Burm. f.) C. Presl: 5 (90% or more of herbicidal effect and crop phytotoxicity)

## COC1=C(C(=O)c2ccc(C(F)(F)F)n(C)c2=O)C(=O)CCC1C (stereo not drawn) [II-35]
[1]
  herbicidal effect, Scirpus juncoides Roxb.: 5 (90% or more of herbicidal effect and crop phytotoxicity)
[2]
  herbicidal effect, Echinochloa oryzicola Vasing: 5 (90% or more of herbicidal effect and crop phytotoxicity)
[3]
  herbicidal effect, Monochoria vaginalis (Burm. f.) C. Presl: 5 (90% or more of herbicidal effect and crop phytotoxicity)

## CC(C)c1ccc(C(=O)C2=C(O)CCCC2=O)c(=O)n1-c1ccccc1 [I-232]
[1]
  herbicidal effect, Scirpus juncoides Roxb.: 5 (90% or more of herbicidal effect and crop phytotoxicity)
[2]
  herbicidal effect, Echinochloa oryzicola Vasing: 5 (90% or more of herbicidal effect and crop phytotoxicity)
[3]
  herbicidal effect, Monochoria vaginalis (Burm. f.) C. Presl: 5 (90% or more of herbicidal effect and crop phytotoxicity)

## CCCS(=O)(=O)Oc1c(C(=O)c2ccc(C(F)(F)F)n(CCCS(C)(=O)=O)c2=O)cnn1C [IV-61]
[1]
  herbicidal effect, Scirpus juncoides Roxb.: 5 (90% or more of herbicidal effect and crop phytotoxicity)
[2]
  herbicidal effect, Echinochloa oryzicola Vasing: 5 (90% or more of herbicidal effect and crop phytotoxicity)
[3]
  herbicidal effect, Monochoria vaginalis (Burm. f.) C. Presl: 5 (90% or more of herbicidal effect and crop phytotoxicity)

## CC(CCn1c(C(F)(F)F)ccc(C(=O)C2=C(O)C(C)CCC(C)C2=O)c1=O)=C(F)F (stereo not drawn) [II-27]
[1]
  herbicidal effect, Scirpus juncoides Roxb.: 5 (90% or more of herbicidal effect and crop phytotoxicity)
[2]
  herbicidal effect, Echinochloa oryzicola Vasing: 5 (90% or more of herbicidal effect and crop phytotoxicity)
[3]
  herbicidal effect, Monochoria vaginalis (Burm. f.) C. Presl: 5 (90% or more of herbicidal effect and crop phytotoxicity)

## O=C1CCCC(O)=C1C(=O)c1ccc(C(F)(F)F)n(Cc2ccc([N+](=O)[O-])cc2)c1=O [I-117]
[1]
  herbicidal effect, Scirpus juncoides Roxb.: 5 (90% or more of herbicidal effect and crop phytotoxicity)
[2]
  herbicidal effect, Echinochloa oryzicola Vasing: 5 (90% or more of herbicidal effect and crop phytotoxicity)
[3]
  herbicidal effect, Monochoria vaginalis (Burm. f.) C. Presl: 5 (90% or more of herbicidal effect and crop phytotoxicity)

## Cc1ccc(S(=O)(=O)Oc2c(C(=O)c3ccc(C(F)(F)F)n(C)c3=O)cnn2C)cc1 [IV-194, 4-[1,2-dihydro-1-methyl-2-oxo-6-(trifluoromethyl)pyridine-3-carbonyl]-1-methyl-5-tosyloxy-1H-pyrazole]
[1]
  herbicidal effect, Scirpus juncoides Roxb.: 5 (90% or more of herbicidal effect and crop phytotoxicity)
[2]
  herbicidal effect, Echinochloa oryzicola Vasing: 5 (90% or more of herbicidal effect and crop phytotoxicity)
[3]
  herbicidal effect, Monochoria vaginalis (Burm. f.) C. Presl: 5 (90% or more of herbicidal effect and crop phytotoxicity)

## Cn1c(C(F)(F)F)ccc(C(=O)C2=C(Sc3cccc(Cl)c3)CCCC2=O)c1=O [II-12]
[1]
  herbicidal effect, Scirpus juncoides Roxb.: 5 (90% or more of herbicidal effect and crop phytotoxicity)
[2]
  herbicidal effect, Echinochloa oryzicola Vasing: 5 (90% or more of herbicidal effect and crop phytotoxicity)
[3]
  herbicidal effect, Monochoria vaginalis (Burm. f.) C. Presl: 5 (90% or more of herbicidal effect and crop phytotoxicity)

## Cc1ccc(S(=O)(=O)Oc2c(C(=O)c3ccc(C(F)(F)F)n(C)c3=O)c(C)nn2C)cc1 [IV-236]
[1]
  herbicidal effect, Scirpus juncoides Roxb.: 5 (90% or more of herbicidal effect and crop phytotoxicity)
[2]
  herbicidal effect, Echinochloa oryzicola Vasing: 5 (90% or more of herbicidal effect and crop phytotoxicity)
[3]
  herbicidal effect, Monochoria vaginalis (Burm. f.) C. Presl: 5 (90% or more of herbicidal effect and crop phytotoxicity)

## CCCS(=O)(=O)Oc1c(C(=O)c2ccc(C(F)(F)F)n(CCC[S+](C)[O-])c2=O)cnn1C (stereo not drawn) [IV-59]
[1]
  herbicidal effect, Scirpus juncoides Roxb.: 3 (50 to less than 70% of herbicidal effect and crop phytotoxicity)
[2]
  herbicidal effect, Echinochloa oryzicola Vasing: 4 (70 to less than 90% of herbicidal effect and crop phytotoxicity)
[3]
  herbicidal effect, Monochoria vaginalis (Burm. f.) C. Presl: 4 (70 to less than 90% of herbicidal effect and crop phytotoxicity)

## COc1ccccc1-n1c(C(F)(F)F)ccc(C(=O)c2cnn(C)c2O)c1=O [IV-64]
[1]
  herbicidal effect, Scirpus juncoides Roxb.: 5 (90% or more of herbicidal effect and crop phytotoxicity)
[2]
  herbicidal effect, Echinochloa oryzicola Vasing: 5 (90% or more of herbicidal effect and crop phytotoxicity)
[3]
  herbicidal effect, Monochoria vaginalis (Burm. f.) C. Presl: 5 (90% or more of herbicidal effect and crop phytotoxicity)

## O=C1CCCC(O)=C1C(=O)c1ccc(C(F)(F)F)n(CS(=O)(=O)C2CCCCC2)c1=O [I-62]
[1]
  herbicidal effect, Scirpus juncoides Roxb.: 4 (70 to less than 90% of herbicidal effect and crop phytotoxicity)
[2]
  herbicidal effect, Echinochloa oryzicola Vasing: 5 (90% or more of herbicidal effect and crop phytotoxicity)
[3]
  herbicidal effect, Monochoria vaginalis (Burm. f.) C. Presl: 5 (90% or more of herbicidal effect and crop phytotoxicity)

## Cn1c(C(F)(F)F)ccc(C(=O)C2=C(Sc3c(Cl)c(Cl)c(Cl)c(Cl)c3Cl)CCCC2=O)c1=O [II-16]
[1]
  herbicidal effect, Scirpus juncoides Roxb.: 5 (90% or more of herbicidal effect and crop phytotoxicity)
[2]
  herbicidal effect, Echinochloa oryzicola Vasing: 5 (90% or more of herbicidal effect and crop phytotoxicity)
[3]
  herbicidal effect, Monochoria vaginalis (Burm. f.) C. Presl: 5 (90% or more of herbicidal effect and crop phytotoxicity)

## COc1ccc(-n2c(C(F)(F)F)ccc(C(=O)c3cnn(C)c3O)c2=O)cc1 [IV-66]
[1]
  herbicidal effect, Scirpus juncoides Roxb.: 5 (90% or more of herbicidal effect and crop phytotoxicity)
[2]
  herbicidal effect, Echinochloa oryzicola Vasing: 5 (90% or more of herbicidal effect and crop phytotoxicity)
[3]
  herbicidal effect, Monochoria vaginalis (Burm. f.) C. Presl: 5 (90% or more of herbicidal effect and crop phytotoxicity)

## CCn1ncc(C(=O)c2ccc(C(F)(F)F)n(CC3CCCO3)c2=O)c1OC(=O)c1c(Cl)cc(Cl)cc1Cl (stereo not drawn) [IV-206]
[1]
  herbicidal effect, Scirpus juncoides Roxb.: 5 (90% or more of herbicidal effect and crop phytotoxicity)
[2]
  herbicidal effect, Echinochloa oryzicola Vasing: 5 (90% or more of herbicidal effect and crop phytotoxicity)
[3]
  herbicidal effect, Monochoria vaginalis (Burm. f.) C. Presl: 5 (90% or more of herbicidal effect and crop phytotoxicity)

## Cc1ccc(C(=O)C2=C(O)CCCC2=O)c(=O)n1-c1cccc(C(F)(F)F)c1 [I-235]
[1]
  herbicidal effect, Scirpus juncoides Roxb.: 5 (90% or more of herbicidal effect and crop phytotoxicity)
[2]
  herbicidal effect, Echinochloa oryzicola Vasing: 5 (90% or more of herbicidal effect and crop phytotoxicity)
[3]
  herbicidal effect, Monochoria vaginalis (Burm. f.) C. Presl: 5 (90% or more of herbicidal effect and crop phytotoxicity)

## Cn1c(C(F)(F)F)ccc(C(=O)C2=C(Sc3ccccc3)CC(C)(C)CC2=O)c1=O [II-19]
[1]
  herbicidal effect, Scirpus juncoides Roxb.: 5 (90% or more of herbicidal effect and crop phytotoxicity)
[2]
  herbicidal effect, Echinochloa oryzicola Vasing: 5 (90% or more of herbicidal effect and crop phytotoxicity)
[3]
  herbicidal effect, Monochoria vaginalis (Burm. f.) C. Presl: 5 (90% or more of herbicidal effect and crop phytotoxicity)

## COc1ccc(Cn2c(C(F)(F)F)ccc(C(=O)C3=C(O)CCCC3=O)c2=O)cc1 [I-122]
[1]
  herbicidal effect, Scirpus juncoides Roxb.: 5 (90% or more of herbicidal effect and crop phytotoxicity)
[2]
  herbicidal effect, Echinochloa oryzicola Vasing: 5 (90% or more of herbicidal effect and crop phytotoxicity)
[3]
  herbicidal effect, Monochoria vaginalis (Burm. f.) C. Presl: 5 (90% or more of herbicidal effect and crop phytotoxicity)

## Cc1nn(C)c(O)c1C(=O)c1ccc(C(F)(F)F)n(CC2CCCO2)c1=O (stereo not drawn) [IV-238]
[1]
  herbicidal effect, Scirpus juncoides Roxb.: 5 (90% or more of herbicidal effect and crop phytotoxicity)
[2]
  herbicidal effect, Echinochloa oryzicola Vasing: 4 (70 to less than 90% of herbicidal effect and crop phytotoxicity)
[3]
  herbicidal effect, Monochoria vaginalis (Burm. f.) C. Presl: 5 (90% or more of herbicidal effect and crop phytotoxicity)

## COc1cccc(Cn2c(C(F)(F)F)ccc(C(=O)C3=C(O)CCCC3=O)c2=O)c1 [I-121]
[1]
  herbicidal effect, Scirpus juncoides Roxb.: 5 (90% or more of herbicidal effect and crop phytotoxicity)
[2]
  herbicidal effect, Echinochloa oryzicola Vasing: 5 (90% or more of herbicidal effect and crop phytotoxicity)
[3]
  herbicidal effect, Monochoria vaginalis (Burm. f.) C. Presl: 5 (90% or more of herbicidal effect and crop phytotoxicity)

## COCn1c(C(F)(F)F)ccc(C(=O)C2=C(O)CCCC2=O)c1=O [I-30]
[1]
  herbicidal effect, Scirpus juncoides Roxb.: 3 (50 to less than 70% of herbicidal effect and crop phytotoxicity)
[2]
  herbicidal effect, Echinochloa oryzicola Vasing: 3 (50 to less than 70% of herbicidal effect and crop phytotoxicity)
[3]
  herbicidal effect, Monochoria vaginalis (Burm. f.) C. Presl: 5 (90% or more of herbicidal effect and crop phytotoxicity)

## CCCS(=O)(=O)Oc1c(C(=O)c2ccc(C(F)(F)F)n(Cc3cccc(OC)c3)c2=O)cnn1C [IV-104]
[1]
  herbicidal effect, Scirpus juncoides Roxb.: 4 (70 to less than 90% of herbicidal effect and crop phytotoxicity)
[2]
  herbicidal effect, Echinochloa oryzicola Vasing: 5 (90% or more of herbicidal effect and crop phytotoxicity)
[3]
  herbicidal effect, Monochoria vaginalis (Burm. f.) C. Presl: 5 (90% or more of herbicidal effect and crop phytotoxicity)

## Cn1c(C(F)(F)F)ccc(C(=O)C2=C(n3cccn3)CCCC2=O)c1=O [II-17]
[1]
  herbicidal effect, Scirpus juncoides Roxb.: 5 (90% or more of herbicidal effect and crop phytotoxicity)
[2]
  herbicidal effect, Echinochloa oryzicola Vasing: 5 (90% or more of herbicidal effect and crop phytotoxicity)
[3]
  herbicidal effect, Monochoria vaginalis (Burm. f.) C. Presl: 5 (90% or more of herbicidal effect and crop phytotoxicity)
